From DBAASP
In brackets after ≈: the same amount, converted by molar mass.

Tests used:
Assay in all cases: ≥ marks a high value that may be exact or a test limit, other limits are often not marked, values filed in µg/mL are converted to µM
[1] = system: Escherichia coli ATCC 25922
[2] = system: Staphylococcus aureus ATCC 29213
[3] = system: Pseudomonas aeruginosa ATCC 27853
[4] = system: Staphylococcus aureus ATCC 25923

Row | SMILES | MIC [1] | MIC [2] | MIC [3] | MIC [4]
1 | CC[C@H](C)[C@H](NC(=O)[C@H](CCCCN)NC(=O)[C@H](CCCCN)NC(=O)[C@H](C)N)C(=O)N[C@@H](CCCN=C(N)N)C(=O)N[C@H](C(=O)N[C@@H](CCCN=C(N)N)C(=O)N[C@@H](CC(C)C)C(=O)N[C@@H](CO)C(=O)N[C@@H](C)C(=O)O)C(C)C [AKKIRVRLSA] | 14 µM (≈ 16 µg/mL) | > 56.1 µM | 14 µM (≈ 16 µg/mL) | –
2 | CSCC[C@H](NC(=O)[C@H](CC(N)=O)NC(=O)[C@H](Cc1ccccc1)NC(=O)CNC(=O)[C@H](CC(=O)O)NC(=O)[C@H](CC(C)C)NC(=O)[C@H](CCCCN)NC(=O)[C@H](CCSC)NC(=O)[C@H](CCC(=O)O)NC(=O)[C@@H](N)CC(=O)O)C(=O)N[C@@H](Cc1cnc[nH]1)C(=O)N[C@@H](CC(C)C)C(=O)N[C@@H](CCC(=O)O)C(N)=O [DEMKLDGFNMHLE] | 20 µM (≈ 31.6 µg/mL) | – | – | 40.5 µM (≈ 63.9 µg/mL)
3 | CC(C)[C@H](NC(=O)[C@H](C)NC(=O)[C@@H](N)Cc1ccccc1)C(=O)N[C@H](C(=O)N[C@@H](Cc1c[nH]c2ccccc12)C(=O)N[C@@H](C)C(=O)N[C@H](C(=O)N[C@@H](CCCCN)C(=O)N[C@@H](Cc1c[nH]c2ccccc12)C(=O)N[C@@H](Cc1c[nH]c2ccccc12)C(=O)N[C@@H](CCCCN)C(=O)NCC(N)=O)[C@@H](C)O)[C@@H](C)O [FAVTWATKWWKG] | > 125 µM | – | – | 100 µM (≈ 148 µg/mL)
4 | CC[C@H](C)[C@H](NC(=O)[C@H](CCCN=C(N)N)NC(=O)[C@H](CCC(N)=O)NC(=O)[C@@H](NC(=O)[C@@H](NC(=O)[C@H](CCCN=C(N)N)NC(=O)[C@H](CCCCN)NC(=O)[C@@H](N)Cc1ccccc1)[C@@H](C)CC)C(C)C)C(=O)N[C@@H](CCCCN)C(=O)N[C@@H](CC(=O)O)C(=O)N[C@@H](CC(N)=O)C(=O)N[C@@H](CC(C)C)C(=O)N[C@@H](CCCN=C(N)N)C(=O)O [FKRIVQRIKDNLR] | 20 µM (≈ 33.7 µg/mL) | > 40 µM | – | –
5 | CC(C)[C@H](NC(=O)[C@@H]1CCCN1C(=O)[C@@H](N)Cc1ccccc1)C(=O)N[C@H](C(=O)N[C@@H](Cc1c[nH]c2ccccc12)C(=O)N[C@@H](CCCN=C(N)N)C(=O)N[C@H](C(=O)N[C@@H](CCCCN)C(=O)N[C@@H](Cc1c[nH]c2ccccc12)C(=O)N[C@@H](Cc1c[nH]c2ccccc12)C(=O)N[C@@H](CCCCN)C(=O)NCC(N)=O)[C@@H](C)O)[C@@H](C)O [FPVTWRTKWWKG] | 15.5 µM (≈ 24.7 µg/mL) | – | – | > 3.1 µM
6 | CC[C@H](C)[C@H](NC(=O)[C@H](CCSC)NC(=O)[C@H](C)NC(=O)[C@@H]1CCCN1C(=O)[C@@H](NC(=O)[C@@H](NC(=O)[C@H](CCCCN)NC(=O)[C@@H](NC(=O)[C@H](CC(C)C)NC(=O)CNC(=O)CN)[C@@H](C)CC)[C@@H](C)CC)C(C)C)C(=O)N[C@H]1CSSC[C@@H](C(=O)O)NC(=O)[C@H](CCCCN)NC(=O)[C@H](CCCCN)NC(=O)[C@H]([C@@H](C)O)NC(=O)[C@H](C(C)C)NC(=O)[C@H](C)NC1=O [GGLIKIVPAMICAVTKKC] | > 139 µM | 139 µM (≈ 256 µg/mL) | > 139 µM | –
7 | CC[C@H](C)[C@H](NC(=O)CN)C(=O)NCC(=O)N[C@@H](CCCN=C(N)N)C(=O)N[C@@H](CCCCN)C(=O)N[C@@H](Cc1ccccc1)C(=O)N[C@@H](CC(C)C)C(=O)NCC(=O)NCC(=O)N[C@H](C(=O)N[C@@H](CCCCN)C(=O)N[C@H](C(=O)N[C@H](C(=O)N[C@@H](Cc1ccccc1)C(=O)N[C@@H](CCCN=C(N)N)C(=O)N[C@@H](CS)C(=O)NCC(=O)N[C@H](C(=O)N[C@@H](CCCCN)C(=O)N[C@@H](CC(=O)O)C(=O)N[C@@H](Cc1ccccc1)C(=O)N[C@@H](C)C(=O)N[C@@H](CO)C(=O)N[C@@H](CCCCN)C(=O)N[C@@H](Cc1cnc[nH]1)C(=O)N[C@@H](CC(C)C)C(=O)N[C@@H](Cc1ccc(O)cc1)C(N)=O)C(C)C)[C@@H](C)O)[C@@H](C)O)C(C)C [GIGRKFLGGVKTTFRCGVKDFASKHLY] | 150 µM (≈ 448 µg/mL) | – | – | –
8 | CC[C@H](C)[C@H](NC(=O)CN)C(=O)N[C@@H](CCCCN)C(=O)N[C@@H](CC(=O)O)C(=O)N[C@@H](CC(C)C)C(=O)N[C@@H](CC(C)C)C(=O)N[C@@H](CCCCN)C(=O)NCC(=O)N[C@@H](C)C(=O)N[C@@H](C)C(=O)N[C@@H](CCCCN)C(=O)N[C@@H](C)C(=O)N[C@@H](CC(C)C)C(=O)N[C@H](C(=O)N[C@@H](CCCCN)C(=O)N[C@H](C(=O)N[C@H](C(=O)N[C@@H](CC(C)C)C(=O)N[C@@H](Cc1ccccc1)C(N)=O)C(C)C)[C@@H](C)O)C(C)C [GIKDLLKGAAKALVKTVLF] | 3 µM (≈ 5.95 µg/mL) | – | – | –
9 | CC[C@H](C)[C@H](NC(=O)[C@H](CCCN=C(N)N)NC(=O)[C@H](CCCCN)NC(=O)[C@H](CC(C)C)NC(=O)[C@H](CC(C)C)NC(=O)CN)C(=O)N[C@@H](CCCCN)C(N)=O [GLLKRIK] | > 33.9 µM | – | – | > 33.9 µM
10 | CC[C@H](C)[C@H](NC(=O)[C@H](CCCN=C(N)N)NC(=O)[C@H](CCCCN)NC(=O)[C@@H](NC(=O)[C@@H](NC(=O)CN)C(C)C)C(C)C)C(=O)N[C@@H](CCCCN)C(=O)N[C@H](C(=O)N[C@H](C(=O)N[C@H](C(N)=O)C(C)C)C(C)C)[C@@H](C)O [GVVKRIKTVV] | > 200 µM | – | – | –

The remaining lines, values ahead:

Row | MIC [1] | MIC [2] | MIC [3] | MIC [4] | SMILES
11 | – | – | – | > 64 µM | CC(C)C[C@H](NC(=O)[C@@H](NC(=O)[C@H](CCCCN)NC(=O)CNC(=O)[C@H](Cc1ccccc1)NC(=O)[C@@H](NC(=O)[C@H](CC(=O)O)NC(=O)CNC(=O)[C@H](Cc1c[nH]c2ccccc12)NC(=O)CN)[C@@H](C)O)C(C)C)C(=O)N[C@@H](CCCCN)C(=O)N[C@@H](CC(N)=O)C(=O)N[C@@H](Cc1ccccc1)C(=O)N[C@@H](C)C(=O)N[C@@H](CCCCN)C(=O)N[C@H](C(=O)N[C@@H](C)C(=O)NCC(=O)N[C@H](C(=O)N[C@@H](CCCCN)C(=O)N[C@@H](C)C(=O)N[C@@H](C)C(=O)N[C@@H](CCCCN)C(=O)O)C(C)C)C(C)C [GWGDTFGKVLKNFAKVAGVKAAK]
12 | 8 µM (≈ 16.2 µg/mL) | – | – | 8 µM (≈ 16.2 µg/mL) | C[C@H](NC(=O)[C@H](C)NC(=O)[C@H](CCCCN)NC(=O)[C@H](CCCCN)NC(=O)[C@H](C)NC(=O)[C@H](C)NC(=O)[C@H](CCCCN)NC(=O)[C@H](C)NC(=O)[C@H](C)NC(=O)[C@H](CCCCN)NC(=O)[C@H](CCCCN)NC(=O)[C@H](C)NC(=O)[C@H](C)NC(=O)[C@H](CCCCN)NC(=O)[C@H](C)NC(=O)[C@H](C)NC(=O)[C@H](CCCCN)NC(=O)[C@H](CCCCN)NC(=O)[C@H](C)NC(=O)[C@H](C)NC(=O)[C@@H](N)CCCCN)C(N)=O [KAAKKAAKAAKKAAKAAKKAA]
13 | 22 µM (≈ 32.3 µg/mL) | – | – | 22 µM (≈ 32.3 µg/mL) | CC(C)C[C@H](NC(=O)[C@H](CCCCN)NC(=O)CNC(=O)[C@H](CC(C)C)NC(=O)[C@H](CCCCN)NC(=O)[C@H](CCCCN)NC(=O)CNC(=O)[C@H](CC(C)C)NC(=O)[C@@H](N)CCCCN)C(=O)NCC(=O)N[C@@H](CCCCN)C(=O)N[C@@H](CCCCN)C(=O)N[C@@H](CC(C)C)C(=O)NCC(N)=O [KLGKKLGKLGKKLG]
14 | 28.3 µM (≈ 48.6 µg/mL) | 10 µM (≈ 17.2 µg/mL) | – | – | CC(=O)N[C@@H](CCCCN)C(=O)N[C@@H](CC(C)C)C(=O)N[C@@H](CC(C)C)C(=O)N[C@@H](CCCCN)C(=O)N[C@@H](CC(C)C)C(=O)N[C@@H](CC(C)C)C(=O)N[C@@H](CCCCN)C(=O)N[C@@H](CCCCN)C(=O)N[C@@H](CC(C)C)C(=O)N[C@@H](CC(C)C)C(=O)N[C@@H](CCCCN)C(=O)N1CCC[C@H]1C(=O)N[C@@H](CC(C)C)C(=O)N[C@@H](CCCCN)C(N)=O [KLLKLLKKLLKPLK]
15 | 10 µM (≈ 17 µg/mL) | 5 µM (≈ 8.51 µg/mL) | – | – | CC(=O)N[C@@H](CCCCN)C(=O)N[C@@H](CC(C)C)C(=O)N[C@@H](CC(C)C)C(=O)N[C@@H](CCCCN)C(=O)N[C@@H](CC(C)C)C(=O)N[C@@H](CC(C)C)C(=O)N1CCC[C@H]1C(=O)N[C@@H](CCCCN)C(=O)N[C@@H](CC(C)C)C(=O)N[C@@H](CC(C)C)C(=O)N[C@@H](CCCCN)C(=O)N[C@@H](CC(C)C)C(=O)N[C@@H](CC(C)C)C(=O)N[C@@H](CCCCN)C(N)=O [KLLKLLPKLLKLLK]
16 | 2.81 µM (≈ 4 µg/mL) | – | – | – | NCCCC[C@H](NC(=O)[C@H](Cc1c[nH]c2ccccc12)NC(=O)[C@H](Cc1c[nH]c2ccccc12)NC(=O)[C@H](CCCCN)NC(=O)[C@H](CCCCN)NC(=O)[C@H](Cc1c[nH]c2ccccc12)NC(=O)[C@@H](N)CCCCN)C(=O)N[C@@H](Cc1c[nH]c2ccccc12)C(=O)N[C@@H](Cc1ccccc1)C(N)=O [KWKKWWKWF]
17 | – | – | 32 µM (≈ 43.6 µg/mL) | – | CC(C)C[C@H](NC(=O)[C@@H](NC(=O)[C@H](C)NC(=O)CNC(=O)[C@H](Cc1c[nH]c2ccccc12)NC(=O)[C@H](CC(N)=O)NC(=O)[C@@H](N)CC(C)C)C(C)C)C(=O)N[C@@H](CCCCN)C(=O)N[C@@H](Cc1cnc[nH]1)C(=O)N[C@H](C(=O)N[C@H](C(=O)N[C@@H](CCCCN)C(=O)O)C(C)C)C(C)C [LNWGAVLKHVVK]
18 | 94.1 µM (≈ 125 µg/mL) | 23.5 µM (≈ 31.3 µg/mL) | – | – | CC(C)[C@H](NC(=O)[C@H](Cc1c[nH]c2ccccc12)NC(=O)[C@H](CCCCN)NC(=O)[C@@H](N)CCCN=C(N)N)C(=O)N[C@@H](CCCCN)C(=O)N[C@@H](Cc1c[nH]c2ccccc12)C(=O)N[C@@H](CCCN=C(N)N)C(=O)N[C@@H](CC(N)=O)C(=O)N[C@@H](CCCN=C(N)N)C(=O)O [RKWVKWRNR]
19 | 4 µM (≈ 7.05 µg/mL) | – | – | – | CC(C)C[C@H](NC(=O)[C@H](Cc1ccccc1)NC(=O)[C@H](C)NC(=O)[C@H](Cc1c[nH]c2ccccc12)NC(=O)[C@H](Cc1c[nH]c2ccccc12)NC(=O)[C@H](Cc1c[nH]c2ccccc12)NC(=O)[C@@H]1CCCN1C(=O)[C@H](Cc1ccccc1)NC(=O)[C@H](CCCCN)NC(=O)[C@H](CCCCN)NC(=O)[C@@H](N)C(C)C)C(=O)N[C@@H](CCCCN)C(=O)N[C@@H](CCCCN)C(N)=O [VKKFPWWWAFLKK]
20 | 9.3 µM (≈ 9.99 µg/mL) | – | 18.6 µM (≈ 20 µg/mL) | 4.65 µM (≈ 5 µg/mL) | NC(=O)[C@H](Cc1c[nH]c2ccccc12)NC(=O)[C@H](CCCN=C(N)N)NC(=O)[C@H](Cc1c[nH]c2ccccc12)NC(=O)[C@H](CCCN=C(N)N)NC(=O)[C@H](Cc1c[nH]c2ccccc12)NC(=O)[C@@H](N)Cc1c[nH]c2ccccc12 [WWRWRW]
